Assays:
Format in all cases: cell-based, human
[1] = tested on: CDK4; experiment: RT-qPCR CDK4 mRNA in Paca2; conditions: 17 vs both Dox. and negative control
Protocol: (§1) All of the extractions were conducted on ice with ice-cold reagents. Total RNA from the different cell lines was isolated using Trizol (Invitrogen; Life Technologies, USA) according to the method of Sthoeger et al.. The 260:280 ratios were measured to determine RNA quality after the isolation method was completed according to the manufacturer’s instructions. A high-capacity cDNA reverse transcription kit was used to produce complementary DNA (cDNA) (Applied Biosystems, USA). […] The relative gene expression method (i.e., ΔΔCT) was used to analyze the real-time PCR data, as explained in Applied Biosystem User Bulletin No. 2. Each sample and gene were normalized using the β-actin gene.

[2] = tested on: pancreatic cell line (Paca2); experiment: DNA fragmentation assay, Paca2; conditions: Paca2, IC50, 24 h, vs negative control (P < 0.01); 17 higher than Dox.
Protocol: The DNA fragmentation assay in a pancreatic cell line (Paca2), breast cancer cell lines (MCF-7) and lung cell line (A549) was performed in concordance with the premises established by Yawata with some modifications. Briefly, after 24 h of exposure of Paca2, MCF-7 and A549 cancer cell lines to the prepared compounds in different Petri dishes (60 × 15 mm, Greiner), the cells were suspended and homogenized in 1 ml of medium and then centrifuged for 10 min at 900 rpm. The genomic DNA was extracted as shown in Yawata. About 1 × 10^6 cells of each tested cancer cell line were treated with the IC50 values of the tested compounds. All the cells were collected via trypsinization and washed with Dulbecco`s Phosphate Buffered Saline. Then, the cells were treated with the lysis buffer containing 5 mM ethylenediaminetetraacetic acid (EDTA), 10 mM Tris (pH 7.4), 0.5% Triton X-100 and 150 mM NaCl for 35 min on ice. […] Finally, the percentage of fragmented DNA was determined by performing gel electrophoresis using 2% agarose gel containing 0.1 μg/ml ethidium bromide.
Pancreatic cancer cell line (Paca2), breast cancer cell line (MCF-7) and lung cancer cell line (A549) were used to determine the percentage of DNA fragmentation after the treatment with IC50 of the tested compounds. […] The percentage of fragmented DNA was measured from the absorbance reading at 600 nm wavelength using the following formula: […]

[3] = tested on: IL-8; experiment: RT-qPCR IL-8 mRNA in Paca2; conditions: 17 vs both Dox. and negative control
Protocol: as §1

[4] = tested on: Bcl-2; experiment: RT-qPCR Bcl-2 mRNA in Paca2; conditions: 17 vs both Dox. and negative control
Protocol: as §1

[5] = tested on: P53; experiment: RT-qPCR P53 mRNA in Paca2; conditions: 17 vs both Dox. and negative control
Protocol: as §1

[6] = tested on: caspase 8; experiment: ELISA caspase 8 in Paca2 cells; conditions: control 4.85
Description: (§2) Elisa assay was used to determine the concentrations of Human caspases-3, -8, Bax, and Bcl2 in PACA2- and A549-treated cells. Also, the concentrations of caspase-8, Bax, and Bcl2 in MCF7-treated cells were detected. The procedures were followed up according to the instructions described in the following kits; Invitrogen human Caspase-3 Elisa Kit, Catalog KHO1091, DRG® human Caspase-8 ELISA Kit, Catalog (EIA-4863), Human Bax ELISA Kit (ab199080) and Human Bcl-2 ELISA Kit (ab119506) respectively. Shortly, the protocol described in the above kits was as followed; at the beginning, all the reagents, samples and standards were prepared. 100 μl of samples or standard were micro pipetted to each well of micro-well strip and kept at room temperature for 2 h. After washing the micro-well strips three times with washing buffer, the prepared antibody (anti-rabbit-IgG-HRP) at a concentration of 100 μl was added to each well at room temperature for 1 h. Then, the micro-well strips were washed again three times. Afterward, the prepared tetramethyl-benzidine (TMB) solution (100 μl) was added to the micro-well strips and kept for 10 min. […] The absorbance of all samples was measured at a wavelength of 460 nm and compared to that of the standard. Curve fitting software was used to plot a standard curve and the concentrations for the unknown samples were measured from the standard curve.

[7] = tested on: DR5; experiment: RT-qPCR DR5 mRNA in Paca2; conditions: 17 vs both Dox. and negative control
Protocol: as §1

[8] = tested on: MCF7 cells; experiment: Annexin V-FITC/PI apoptosis flow cytometry, MCF7; conditions: for percentage of late apoptotic cells (Q1-UR) / percentage of necrotic cells (Q1-UL) / percentage of early apoptotic cells (Q1-LR): MCF7, 24 h, IC50; for percentage of late apoptotic cells (Q1-UR): control 0.41%; for percentage of necrotic cells (Q1-UL): control 1.01%; for percentage of early apoptotic cells (Q1-LR): control 7.8%; for induction of apoptotic death: MCF7 cells
Protocol: The percentage of apoptotic cells was detected by using Annexin V-FITC kit catalog number (#K101-25). About 2X10^6 of MCF7 and Paca2 cells were washed in 500 µl of 1 × PBS. Then, the cells were centrifuged and the supernatant was discarded. The cells pellet were re-suspended in the annexin V incubation reagent. The annexin V incubation reagent contained 10 μl binding buffer (10 ×), 10 μl propidium iodide, 1 μl annexin V-FITC, and 79 μl deionized water. The cells were incubated in 100 μl annexin V incubation reagent for 15 min in the dark at room temperature. Finally, the apoptotic cell percentage was detected by flow cytometry using the FITC signal detector (usually FL-1) and PI staining by the phycoerythrin emission signal detector (usually FL-2).

[9] = tested on: caspase 3; experiment: ELISA caspase 3 in A549 cells; conditions: control 6.32
Description: as §2

[10] = tested on: P53; experiment: RT-qPCR P53 mRNA in A549; conditions: A549, vs negative control
Protocol: as §1

[11] = tested on: DR4; experiment: RT-qPCR DR4 mRNA in A549
Protocol: as §1

[12] = tested on: DR5; experiment: RT-qPCR DR5 mRNA in A549
Protocol: as §1

[13] = tested on: Bcl-2; experiment: RT-qPCR Bcl-2 mRNA in A549; conditions: A549, vs negative control
Protocol: as §1

For `CN1CCN(c2nc(C(Cl)(Cl)Cl)nc3c2c(-c2ccc(Br)cc2)c(Cl)n3-c2ccc(Cl)cc2Cl)CC1` [Compound 17, 5-(4-bromophenyl)-6-chloro-7-(2,4-dichlorophenyl)-4-(4-methylpiperazin-1-yl)-2-(trichloromethyl)-7H-pyrrolo[2,3-d]pyrimidine], the “CDK4 mRNA level” value [1] was “lowered”, the DNA fragmentation rate [2] was “increased significantly” and the “IL-8 mRNA level” value [3] was “lowered”. For the same compound, the “Bcl-2 mRNA level” value [4] was “down-regulated”, the “P53 mRNA level” value [5] was “up-regulated” and the “caspase 8 level (ELISA)” value [6] was 13.86 pg/mL. The “DR5 mRNA level” value [7] was “up-regulated”.

With `COc1ccc(-c2c(Cl)n(-c3ccc(Cl)cc3Cl)c3ncnc(N4CCOCC4)c23)cc1OC` [Compound 18b, 4-(6-chloro-7-(2,4-dichlorophenyl)-5-(3,4-dimethoxyphenyl)-7H-pyrrolo[2,3-d]pyrimidin-4-yl)morpholine] the “percentage of late apoptotic cells (Q1-UR)” value [8] was 0.89%, the “percentage of necrotic cells (Q1-UL)” value [8] was 0.76% and the “percentage of early apoptotic cells (Q1-LR)” value [8] was 20.63%. For the same compound, the “induction of apoptotic death” value [8] was “induced the apoptotic death”.

For `COc1ccc(-c2c(Cl)n(-c3ccc(Cl)cc3Cl)c3ncnc(N4CCN(C)CC4)c23)cc1OC` [Compound 16b, 6-chloro-7-(2,4-dichlorophenyl)-5-(3,4-dimethoxyphenyl)-4-(4-methylpiperazin-1-yl)-7H-pyrrolo[2,3-d]pyrimidine], the “percentage of late apoptotic cells (Q1-UR)” value [8] was 1.7%, the “percentage of necrotic cells (Q1-UL)” value [8] was 0.96% and the “percentage of early apoptotic cells (Q1-LR)” value [8] was 11.49%. The “induction of apoptotic death” value [8] was “induced the apoptotic death”.

In the case of `COc1ccc(-c2c(Cl)n(-c3ccc(Cl)cc3Cl)c3ncnc(Cl)c23)cc1OC` [Compound 4b, 4,6-dichloro-7-(2,4-dichlorophenyl)-5-(3,4-dimethoxyphenyl)-7H-pyrrolo[2,3-d]pyrimidine], the “caspase 3 level (ELISA)” value [9] was 12.12 pg/mL, the “P53 mRNA level” value [10] was “up-regulated” and the “DR4 mRNA level” value [11] was “up-regulated”. For the same compound, the “DR5 mRNA level” value [12] was “up-regulated” and the “Bcl-2 mRNA level” value [13] was “down-regulated”.

`COc1cccc2c1C(=O)c1c(O)c3c(c(O)c1C2=O)C[C@@](O)(C(=O)CO)C[C@@H]3O[C@H]1C[C@H](N)[C@H](O)[C@H](C)O1` [Dox, Doxorubicin, reference compound] was tested, and the “CDK4 mRNA level” value [1] was “no significant difference”, the DNA fragmentation rate [2] was “increased significantly” and the “IL-8 mRNA level” value [3] was “no significant difference”. The “Bcl-2 mRNA level” value [4] was “no significant difference”, the “P53 mRNA level” value [5] was “no significant difference” and the “P53 mRNA level” value [10] was “up-regulated”. For the same compound, the “DR4 mRNA level” value [11] was “up-regulated”, the “DR5 mRNA level” value [7] was “no significant difference” and the “DR5 mRNA level” value [12] was “up-regulated”. For the same compound, the “Bcl-2 mRNA level” value [13] was “down-regulated”.

From publication PMC10463376, “Design, synthesis, in vitro anticancer, molecular docking and SAR studies of new series of pyrrolo[2,3-d]pyrimidine derivatives” (BMC Chemistry, 2023)
